# Read-outs that look alike come from different tables or passages of the source.
# Experiments:
# plasmodium berghei = assay: suppression of parasitemia in mice infected with plasmodium berghei; assay type: in vivo; details: for ED50: Plasmodium berghei, sc; for ED50 / Mean % Parasitemia / Mean % Suppression / % died: mice
# Description: Five representative amidinoureas were tested in mice infected with plasmodium berghei. The five compounds tested are the following:
# Groups of 10 mice each were used in seven doses totaling 70 mice per compound. The protozoal infection was induced by intraperitoneal injection of 5,000,000 parasitized blood cells from a donor. The compound was administered subcutaneously in doses ranging from 0.15 to 10 mg. per kg., suspended on 0.5% methacel solution (doses expressed as base). The compound was repeatedly injected on the day of inoculation (day 1), day 2 and day 3. Blood smears were performed on days 4, 5, 6 and 10.
# Untreated control but infected mice developed fulminating parasitemia of as high as 35% on day 10 and deaths occurred from day 12 to 14.
# LD50 in mice = details: mouse, in vivo
# [1] = test system: Babesis caballi, or B. equi; details: horses; reported; cited from earlier work
# P. berghei = details: cited from earlier work
# [2] = s.c., 2.0 mg/kg on days 1-3, 4th day
# [3] = s.c., 2.0 mg/kg on days 1-3, 5th day
# [4] = s.c., 2.0 mg/kg on days 1-3, 6th day
# [5] = s.c., 2.0 mg/kg on days 1-3, 10th day
# [6] = s.c., 10.0 mg/kg on days 1-3, 4th day
# [7] = s.c., 10.0 mg/kg on days 1-3, 5th day
# [8] = s.c., 10.0 mg/kg on days 1-3, 6th day
# [9] = s.c., 10.0 mg/kg on days 1-3, 10th day
# [10] = s.c., .20 mg/kg on days 1-3, 4th day
# [11] = s.c., .20 mg/kg on days 1-3, 5th day
# [12] = s.c., .20 mg/kg on days 1-3, 6th day
# [13] = s.c., .20 mg/kg on days 1-3, 10th day
# [14] = s.c., .50 mg/kg on days 1-3, 4th day
# [15] = s.c., .50 mg/kg on days 1-3, 5th day
# [16] = s.c., .50 mg/kg on days 1-3, 6th day
# [17] = s.c., .50 mg/kg on days 1-3, 10th day
compound,measurement,setting,value
"Cc1cccc(C)c1NC(=O)NC(=N)NC(C)C.Cl [Compound E, 1-(2,6-dimethylphenyl)-3-(isopropylamidino)urea hydrochloride]",ED50,"plasmodium berghei; 96 h, s.c., levels of parasitemia, 4th day, read-out: SED50 (Suppressant Effective Dose50)",0.9 mg/kg
same,ED50,"plasmodium berghei; 120 h, s.c., levels of parasitemia, 5th day, read-out: SED50 (Suppressant Effective Dose50)",1.52 mg/kg
same,ED50,"plasmodium berghei; 144 h, s.c., levels of parasitemia, 6th day, read-out: SED50 (Suppressant Effective Dose50)",1.52 mg/kg
same,ED50,"plasmodium berghei; 240 h, s.c., levels of parasitemia, 10th day, read-out: SED50 (Suppressant Effective Dose50)",5.63 mg/kg
same,ED50,"plasmodium berghei; day 4 to day 10, read-out: HIGHEST SED50",5.63 mg/kg
same,ED50,"plasmodium berghei; day 4 to day 10, read-out: LOWEST SED50",0.9 mg/kg
same,FACTOR (HIGHEST SED50 ÷ LOWEST SED50),"plasmodium berghei; factor of change, day 4 to day 10, duration of action",6.26
same,Mean % Parasitemia,plasmodium berghei; [2],1.75%
same,Mean % Suppression,plasmodium berghei; [2],66.7%
same,Mean % Parasitemia,plasmodium berghei; [3],3.50%
same,Mean % Suppression,plasmodium berghei; [3],52.1%
same,Mean % Parasitemia,plasmodium berghei; [4],4.10%
same,Mean % Suppression,plasmodium berghei; [4],55.9%
same,Mean % Parasitemia,plasmodium berghei; [5],27.7%
same,Mean % Suppression,plasmodium berghei; [5],22.0%
same,% died,"plasmodium berghei; s.c., 2.0 mg/kg on days 1-3, 12th day",0%
same,% died,"plasmodium berghei; s.c., 2.0 mg/kg on days 1-3, 13th day",20%
same,% died,"plasmodium berghei; s.c., 2.0 mg/kg on days 1-3, 14th day",40%
same,Mean % Parasitemia,plasmodium berghei; [6],0%
same,Mean % Suppression,plasmodium berghei; [6],100.0%
same,Mean % Parasitemia,plasmodium berghei; [7],0%
same,Mean % Suppression,plasmodium berghei; [7],100.0%
same,Mean % Parasitemia,plasmodium berghei; [8],0%
same,Mean % Suppression,plasmodium berghei; [8],100.0%
same,Mean % Parasitemia,plasmodium berghei; [9],0%
same,Mean % Suppression,plasmodium berghei; [9],100.0%
same,% died,"plasmodium berghei; s.c., 10.0 mg/kg on days 1-3, 12th day",0%
same,% died,"plasmodium berghei; s.c., 10.0 mg/kg on days 1-3, 13th day",0%
same,% died,"plasmodium berghei; s.c., 10.0 mg/kg on days 1-3, 14th day",0%
same,Mean % Parasitemia,plasmodium berghei; [10],5.25%
same,Mean % Suppression,plasmodium berghei; [10],0%
same,Mean % Parasitemia,plasmodium berghei; [11],7.00%
same,Mean % Suppression,plasmodium berghei; [11],4.1%
same,Mean % Parasitemia,plasmodium berghei; [12],8.70%
same,Mean % Suppression,plasmodium berghei; [12],6.5%
same,Mean % Parasitemia,plasmodium berghei; [13],33.9%
same,Mean % Suppression,plasmodium berghei; [13],4.5%
same,% died,"plasmodium berghei; s.c., .20 mg/kg on days 1-3, 12th day",0%
same,% died,"plasmodium berghei; s.c., .20 mg/kg on days 1-3, 13th day",60%
same,% died,"plasmodium berghei; s.c., .20 mg/kg on days 1-3, 14th day",60%
same,Mean % Parasitemia,plasmodium berghei; [14],2.50%
same,Mean % Suppression,plasmodium berghei; [14],52.3%
same,Mean % Parasitemia,plasmodium berghei; [15],6.90%
same,Mean % Suppression,plasmodium berghei; [15],5.5%
same,Mean % Parasitemia,plasmodium berghei; [16],7.40%
same,Mean % Suppression,plasmodium berghei; [16],20.4%
same,Mean % Parasitemia,plasmodium berghei; [17],31.3%
same,Mean % Suppression,plasmodium berghei; [17],11.8%
same,% died,"plasmodium berghei; s.c., .50 mg/kg on days 1-3, 12th day",0%
same,% died,"plasmodium berghei; s.c., .50 mg/kg on days 1-3, 13th day",20%
same,% died,"plasmodium berghei; s.c., .50 mg/kg on days 1-3, 14th day",60%
same,LD50,LD50 in mice,82 to 135 mg/kg
C[n+]1cccc2cc(NC(=O)Nc3ccc4c(ccc[n+]4C)c3)ccc21 [acaprin],effect on equine piroplasmosis parasites,[1],only to reduce the number of parasites
N=C(N)c1ccc(N=NNc2ccc(C(=N)N)cc2)cc1 [birenil],effect on equine piroplasmosis parasites,[1],only to reduce the number of parasites
CC1(C)N=C(N)N=C(N)N1c1ccc(Cl)cc1 [chloroguanide triazine pamoate],excretion from the host body,"P. berghei; P. berghei infected mice, single muscular injection",not excreted rapidly from the host body
same,effect in P. berghei infected mice,P. berghei; single muscular injection,good and lasting effects
CCc1nc(N)nc(N)c1-c1ccc(Cl)cc1 [pyrimethamine],resistance of P. berghei,P. berghei; P. berghei,resistant
acriflavin,effect on equine piroplasmosis parasites,[1],only to reduce the number of parasites

# From patent US4340609A, “Amidinourea derivative veterinary compositions for suppression of parasitemia” (William H. Rorer, Inc., priority 1980, dated 1982)
